# Source: publication PMC6038383, “Crystal structure of the spliceosomal DEAH-box ATPase Prp2” (Acta Crystallographica. Section D, Structural Biology, 2018)
# Molecular target: T1, Prp2 from C. thermophilum (ctPrp2), residues 270-921 (Thermochaetoides thermophila, UniProt G0SEG4)
# T1 construct: gene CTHT_0063660; N-terminally truncated residues 270-921, GST tag cleaved with PreScission protease, expressed in E. coli Rosetta 2 (DE3)
# T1 sequence (G0SEG4 270-921): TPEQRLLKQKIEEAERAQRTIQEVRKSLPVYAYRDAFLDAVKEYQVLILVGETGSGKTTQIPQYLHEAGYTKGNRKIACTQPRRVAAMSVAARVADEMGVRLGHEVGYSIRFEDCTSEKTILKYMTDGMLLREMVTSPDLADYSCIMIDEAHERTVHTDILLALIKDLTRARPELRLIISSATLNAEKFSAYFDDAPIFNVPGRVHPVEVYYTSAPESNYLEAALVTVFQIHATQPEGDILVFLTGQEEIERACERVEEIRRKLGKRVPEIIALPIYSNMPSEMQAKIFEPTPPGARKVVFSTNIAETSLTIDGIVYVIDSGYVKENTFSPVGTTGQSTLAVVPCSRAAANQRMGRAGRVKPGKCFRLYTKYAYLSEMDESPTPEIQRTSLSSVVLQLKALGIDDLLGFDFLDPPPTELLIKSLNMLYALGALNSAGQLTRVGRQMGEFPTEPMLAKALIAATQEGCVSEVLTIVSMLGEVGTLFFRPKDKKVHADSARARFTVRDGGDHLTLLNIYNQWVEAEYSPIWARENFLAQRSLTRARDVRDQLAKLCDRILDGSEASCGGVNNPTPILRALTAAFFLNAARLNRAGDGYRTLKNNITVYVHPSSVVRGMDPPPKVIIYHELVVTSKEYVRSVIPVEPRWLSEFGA
# Experiment: isothermal titration calorimetry
# Format: binding
smiles,measurement,value
Nc1ncnc2c1ncn2[C@@H]1O[C@H](COP(=O)(O)OP(=O)(O)O)[C@@H](O)[C@H]1O [ADP],Kd,179 nM
